Key:
Format in all cases: in vivo
[1] = test system: barnyardgrass (Echinochloa crus-galli, ECHCG); assay: Post-emerge test, greenhouse herbicide activity screening; conditions: rating scale 0-100 (0 no damage, 100 complete death), 14 days after application
How it was run: (§1)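 Visual ratings on a 0-100 scale (0 no damage, 100 all plants dead) were taken at 14 days after treatment. Rates of 15-1000 g ai/ha in acetone, 187 l/ha, were sprayed onto soil one day after planting (pre-emerge) or onto 2-3 leaf plants with 0.25% v/v surfactant (post-emerge).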

[2] = test system: ivyleaf morningglory (Ipomoea hederacea, IPOHE); assay: as above; conditions: rating scale 0-100 (0 no damage, 100 complete death), 14 days after application
How it was run: as §1

[3] = test system: johnsongrass (Sorghum halepense, SORHA); assay: as above; conditions: rating scale 0-100 (0 no damage, 100 complete death), 14 days after application
How it was run: as §1

[4] = test system: green foxtail (Setaria viridis, SETVI); assay: as above; conditions: rating scale 0-100 (0 no damage, 100 complete death), 14 days after application
How it was run: as §1

[5] = test system: large crabgrass (Digitaria sanguinalis, DIGSA); assay: as above; conditions: rating scale 0-100 (0 no damage, 100 complete death), 14 days after application
How it was run: as §1

[6] = test system: lambsquarters (Chenopodium album, CHEAL); assay: as above; conditions: rating scale 0-100 (0 no damage, 100 complete death), 14 days after application
How it was run: as §1

[7] = test system: velvetleaf (Abutilon theophrasti, ABUTH); assay: as above; conditions: rating scale 0-100 (0 no damage, 100 complete death), 14 days after application
How it was run: as §1

[8] = test system: redroot pigweed (Amaranthus retroflexus, AMARE); assay: as above; conditions: rating scale 0-100 (0 no damage, 100 complete death), 14 days after application
How it was run: as §1

[9] = test system: sicklepod (Cassia obtusifolia, CASOB); assay: as above; conditions: rating scale 0-100 (0 no damage, 100 complete death), 14 days after application
How it was run: as §1

[10] = test system: common ragweed (Ambrosia artemisizfolia L., AMBEL); assay: as above; conditions: rating scale 0-100 (0 no damage, 100 complete death), 14 days after application
How it was run: as §1

[11] = test system: upland rice (Oryza sp., var. Tebonnet, RICE); assay: Post-emerge test, crop safety; conditions: rating scale 0-100 (0 no damage, 100 complete death), 14 days after application
How it was run: (§2)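 Plants grown in 10 cm pots of sandy loam mix received acetone-dissolved compounds through a moving flat-fan nozzle. Doses ranged from 15 to 1000 g ai/ha. Pre-emerge pots were seeded one day earlier, post-emerge pots 8–21 days earlier. Fourteen days on, each pot was graded 0–100 for damage.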

[12] = test system: field corn (Zea mays L., var. Dekalb 535, CORN); assay: Post-emerge test, crop safety; conditions: rating scale 0-100 (0 no damage, 100 complete death), 14 days after application
How it was run: as §2

[13] = test system: redroot pigweed (Amaranthus retroflexus, AMARE); assay: Pre-emerge test, greenhouse herbicide activity screening; conditions: rating scale 0-100, 14 days after application
How it was run: as §2

[14] = test system: upland rice (Oryza sp., var. Tebonnet, RICE); assay: Pre-emerge test, crop safety; conditions: rating scale 0-100, 14 days after application
How it was run: (§3)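 Applied at 15–1000 g ai/ha from acetone in 187 l/ha spray volume. Post-emergence applications included 0.25% v/v non-ionic surfactant and reached plants sown 8–21 days before. Pre-emergence applications were incorporated by surface watering. Efficacy or crop damage was rated on a 0–100 scale after 14 days.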

[15] = test system: field corn (Zea mays L., var. Dekalb 535, CORN); assay: Pre-emerge test, crop safety; conditions: rating scale 0-100, 14 days after application
How it was run: as §3

[16] = test system: barnyardgrass (Echinochloa crus-galli, ECHCG); assay: Pre-emerge test, greenhouse herbicide activity screening; conditions: rating scale 0-100, 14 days after application
How it was run: (§4)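 Rating: 0–100 visual injury, 14 DAA. Application: acetone, 187 l/ha, 15–1000 g ai/ha, flat-fan track sprayer with nozzle 40–45 cm above soil or canopy. Post-emerge runs used 0.25% v/v surfactant on 2–3 leaf plants.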

[17] = test system: ivyleaf morningglory (Ipomoea hederacea, IPOHE); assay: as above; conditions: rating scale 0-100, 14 days after application
How it was run: as §4

[18] = test system: johnsongrass (Sorghum halepense, SORHA); assay: as above; conditions: rating scale 0-100, 14 days after application
How it was run: as §4

[19] = test system: green foxtail (Setaria viridis, SETVI); assay: as above; conditions: rating scale 0-100, 14 days after application
How it was run: as §4

[20] = test system: large crabgrass (Digitaria sanguinalis, DIGSA); assay: as above; conditions: rating scale 0-100, 14 days after application
How it was run: as §4

[21] = test system: lambsquarters (Chenopodium album, CHEAL); assay: as above; conditions: rating scale 0-100, 14 days after application
How it was run: as §4

[22] = test system: velvetleaf (Abutilon theophrasti, ABUTH); assay: as above; conditions: rating scale 0-100, 14 days after application
How it was run: as §4

[23] = test system: sicklepod (Cassia obtusifolia, CASOB); assay: as above; conditions: rating scale 0-100, 14 days after application
How it was run: as §4

## CCCOC(=O)C(C)(Cl)Cc1c(OC)c(Cl)cc(F)c1-n1c(=O)cc(C(F)(F)F)n(C)c1=O (stereo not shown) [14-35]
[1]; Rate 63 g ai/ha
  Post-emerge Herbicidal Activity, phytotoxicity rating ECHCG: 100
[1]; Rate 250 g ai/ha
  Post-emerge Herbicidal Activity, phytotoxicity rating ECHCG: 100
[2]; Rate 63 g ai/ha
  Post-emerge Herbicidal Activity, phytotoxicity rating IPOHE: 70
[2]; Rate 250 g ai/ha
  Post-emerge Herbicidal Activity, phytotoxicity rating IPOHE: 100
[3]; Rate 63 g ai/ha
  Post-emerge Herbicidal Activity, phytotoxicity rating SORHA: 30
[3]; Rate 250 g ai/ha
  Post-emerge Herbicidal Activity, phytotoxicity rating SORHA: 70
[4]; Rate 63 g ai/ha
  Post-emerge Herbicidal Activity, phytotoxicity rating SETVI: 50
[4]; Rate 250 g ai/ha
  Post-emerge Herbicidal Activity, phytotoxicity rating SETVI: 95
[5]; Rate 63 g ai/ha
  Post-emerge Herbicidal Activity, phytotoxicity rating DIGSA: 50
[5]; Rate 250 g ai/ha
  Post-emerge Herbicidal Activity, phytotoxicity rating DIGSA: 95
[6]; Rate 63 g ai/ha
  Post-emerge Herbicidal Activity, phytotoxicity rating CHEAL: 100
[6]; Rate 250 g ai/ha
  Post-emerge Herbicidal Activity, phytotoxicity rating CHEAL: 100
[7]; Rate 63 g ai/ha
  Post-emerge Herbicidal Activity, phytotoxicity rating ABUTH: 95
[7]; Rate 250 g ai/ha
  Post-emerge Herbicidal Activity, phytotoxicity rating ABUTH: 100
[8]; Rate 63 g ai/ha
  Post-emerge Herbicidal Activity, phytotoxicity rating AMARE: 100
[8]; Rate 250 g ai/ha
  Post-emerge Herbicidal Activity, phytotoxicity rating AMARE: 100
[9]; Rate 63 g ai/ha
  Post-emerge Herbicidal Activity, phytotoxicity rating CASOB: 0
[9]; Rate 250 g ai/ha
  Post-emerge Herbicidal Activity, phytotoxicity rating CASOB: 90
[10]; Rate 63 g ai/ha
  Post-emerge Herbicidal Activity, phytotoxicity rating AMBEL: 100
[10]; Rate 250 g ai/ha
  Post-emerge Herbicidal Activity, phytotoxicity rating AMBEL: 100
[11]; Rate 63 g ai/ha
  Post-emerge phytotoxicity rating RICE (crop damage): 80
[11]; Rate 250 g ai/ha
  Post-emerge phytotoxicity rating RICE (crop damage): 100
[12]; Rate 63 g ai/ha
  Post-emerge phytotoxicity rating CORN (crop damage): 100
[12]; Rate 250 g ai/ha
  Post-emerge phytotoxicity rating CORN (crop damage): 100
[13]; 63 g ai/ha
  Pre-emerge herbicidal activity, phytotoxicity rating AMARE: 100
[13]; 250 g ai/ha
  Pre-emerge herbicidal activity, phytotoxicity rating AMARE: 100
[14]; 63 g ai/ha
  Pre-emerge phytotoxicity rating, crop damage RICE: 0
[14]; 250 g ai/ha
  Pre-emerge phytotoxicity rating, crop damage RICE: 10
[15]; 63 g ai/ha
  Pre-emerge phytotoxicity rating, crop damage CORN: 0
[15]; 250 g ai/ha
  Pre-emerge phytotoxicity rating, crop damage CORN: 25
[16]; 63 g ai/ha
  Pre-emerge herbicidal activity, phytotoxicity rating ECHCG: 0
[16]; 250 g ai/ha
  Pre-emerge herbicidal activity, phytotoxicity rating ECHCG: 99
[17]; 63 g ai/ha
  Pre-emerge herbicidal activity, phytotoxicity rating IPOHE: 0
[17]; 250 g ai/ha
  Pre-emerge herbicidal activity, phytotoxicity rating IPOHE: 0
[18]; 63 g ai/ha
  Pre-emerge herbicidal activity, phytotoxicity rating SORHA: 0
[18]; 250 g ai/ha
  Pre-emerge herbicidal activity, phytotoxicity rating SORHA: 50
[19]; 63 g ai/ha
  Pre-emerge herbicidal activity, phytotoxicity rating SETVI: 80
[19]; 250 g ai/ha
  Pre-emerge herbicidal activity, phytotoxicity rating SETVI: 100
[20]; 63 g ai/ha
  Pre-emerge herbicidal activity, phytotoxicity rating DIGSA: 50
[20]; 250 g ai/ha
  Pre-emerge herbicidal activity, phytotoxicity rating DIGSA: 95
[21]; 63 g ai/ha
  Pre-emerge herbicidal activity, phytotoxicity rating CHEAL: 50
[21]; 250 g ai/ha
  Pre-emerge herbicidal activity, phytotoxicity rating CHEAL: 100
[22]; 63 g ai/ha
  Pre-emerge herbicidal activity, phytotoxicity rating ABUTH: 100
[22]; 250 g ai/ha
  Pre-emerge herbicidal activity, phytotoxicity rating ABUTH: 100
[23]; 63 g ai/ha
  Pre-emerge herbicidal activity, phytotoxicity rating CASOB: 0
[23]; 250 g ai/ha
  Pre-emerge herbicidal activity, phytotoxicity rating CASOB: 0
